From patent US20230405151A1, “USE OF IRAK4 MODULATORS FOR GENE THERAPY” (Genzyme Corporation, priority 2022, published 2023)

Columns and labels:
[1] = system: C57BL/6J mice injected with AAV (LacZ transgene); assay: In vivo mouse AAV model: intracellular cytokine staining of splenocytes; details: chow 30 mg/kg from 15 days prior to AAV; day 21; versus AAV group; N=10
Description: (§1) In-vivo mice experiments. C57BL/6J mice were purchased from Jackson Laboratories. 6-8-week male mice were divided into 3 groups—PBS group, AAV group and AAV+IRAK4 group all groups with 10 mice each. Zimlovisertib IRAK4 inhibitor (Synonyms: PF-06650833) Cat. No.: HY-19836 (MedChemExpress) was mixed with mouse chow Catalog #2016, Teklad Global 16% Protein Rodent Diets https://www.inotivco.com/rodent-natural-ingredient-2016-diets at a dose of 30 mg/kg. AAV+IRAK4 group was fed the chow with Zimlovisertib IRAK4 inhibitor 15 days prior to AAV injection whereas PBS and AAV group were fed with mouse chow Catalog #2016, Teklad Global 16% Protein Rodent Diets https://www.inotivco.com/rodent-natural-ingredient-2016-diets. PBS group mice were injected intramuscularly with 100 ul PBS, AAV group was injected intramuscularly with 1e11 vg per quadricep muscle of both legs, 100 ul volume.
Intracellular cytokine staining. Splenocytes were harvested from mouse spleens, and 2 million cells were seeded on a 96-well U-bottom plate. The cells were centrifuged at 2,000 rpm for 5 minutes and then resuspended with 100 μl of the RPMI containing 10% FBS and 1×2-mercaptoethanol. 10 μg/ml concentration of AAVrh32.33 overlapping peptide, AAVrh32.33 LacZ immunodominant peptide, and LacZ immunodominant peptide were prepared in the RPMI1640 containing 10% FBS, 1×2-mercaptoethanol, and 1:500 GolgiStop. For the positive control, 0.10 μg/ml PMA and 2 μg/ml Ionomycin solution were prepared in the RPIM1640 containing 10% FBS, 1×2-mercaptoethanol, and 1:500 GolgiStop. Then, 100 μl of the prepared solution was added to the cells, resulting in a final concentration of 5 μg/ml (or 0.05 μg/ml PMA and 1 μg/ml Ionomycin). The cells were incubated at 37° C. 5% CO2 incubator overnight to stimulate the cells. The next day, the cells were centrifuged at 2,000 rpm for 5 minutes, and then washed with the FACS buffer one time. The cells were stained with an antibody cocktail (1:100 anti-CD4 FITC, 1:100 anti-CD8a PerCP-Cy5.5, 1:100 anti-CD44 Pacific Blue, 1:100 Live/Dead Cell Stain Kit) for 30 minutes at 4° C. […]

[2] = system: C57BL/6J mice injected with AAV (LacZ transgene); assay: In vivo mouse AAV model: CD8 TEM and lacZ tetramer staining of PBMCs and splenocytes; details: chow 30 mg/kg from 15 days prior to AAV injection; day 14 post AAV; versus AAV group; N=10
Description: as §1
The same experiment design was followed with n=6 mice in each group PBS group, AAV group and AAV+IRAK4 degrader PROTAC IRAK4 degrader-1 Cat. No.: HY-129966 (MedChemExpress) that was mixed with chow at 100 mg/kg and fed to mice 15 days prior to AAV injection. […] AAV capsid used in the study had LacZ transgene. All animal experiments were conducted in accordance with the Institutional Animal Care and Use Committees at Sanofi, Framingham. Submandibular bleeds were performed weekly, and necropsy was performed three weeks post AAV injection.
PBMC isolation and surface staining. 120 ul blood was collected in K2EDTA coated tubes. The blood was mixed with DBPS at 1:1 ration and pipetted into a separate tube containing Ficoll (GE17-5442-02) to ensure no mixing of the blood and Ficoll phases. The mixture was centrifuged at 2000 RPM for 25 minutes at room temperature (9 acceleration and no braking). The buffy coat containing the peripheral blood mononuclear cells (PBMCs) was collected, transferred to a new tube, and centrifuged for five minutes at 400 RCF. PBMCs were washed three times with phosphate buffered saline (PBS) containing 1% fetal bovine serum (FBS) or fetal calf serum (FCS) and counted. The PBMC cells thus obtained were stained with different antibodies to quantify percentage of different immune cell subsets in peripheral blood.
PBMC CD8 TEM and lacZ tetramer staining. The PBMC was isolated from ˜120 μl of mouse blood, and it was transferred to a 96-well U-bottom plate. […]

## CC[C@@H]1[C@H](F)C(=O)N[C@@H]1COc1nccc2cc(C(N)=O)c(OC)cc12 [zimlovisertib, 1-[[(2S,3S,4S)-3-Ethyl-4-fluoro-5-oxo-2-pyrrolidinyl]methoxy]-7-methoxy-6-isoquinolinecarboxamide]
[1]
  Interferon gamma producing activated CD8 T cells, splenocytes stimulated with AAV immunodominant peptide: reduce significantly
  Interferon gamma producing activated CD8 T cells, splenocytes stimulated with AAV peptide pools: reduce significantly
  Interferon gamma producing activated CD8 T cells, splenocytes stimulated with LacZ immunodominant peptide: reduce significantly
[2]
  CD44+CD62L+ effector memory cells in PBMCs: significant reduction
  LacZ tetramer positive CD8 T cells in PBMCs: significant reduction
